For this series, the system named is CCRIS mutagenicity, Ames/micronucleus/aberration tests. Briefly: CCRIS mutagenicity studies.
Setting [1] is: Test System: AMES SALMONELLA TYPHIMURIUM, Strain/Indicator: TA98, Metabolic Activation: NONE, Method: PREINCUBATION
The mark [2] stands for this setting: Test System: AMES SALMONELLA TYPHIMURIUM, Strain/Indicator: TA100, Metabolic Activation: NONE, Method: PREINCUBATION
[3] abbreviates: Test System: AMES SALMONELLA TYPHIMURIUM, Strain/Indicator: TA1535, Metabolic Activation: NONE, Method: PREINCUBATION
Setting [4] is: Test System: AMES SALMONELLA TYPHIMURIUM, Strain/Indicator: TA100, Metabolic Activation: RAT, LIVER, S-9, AROCLOR 1254, Method: STANDARD PLATE.

Active and inactive are the calls of the source. How the calls were made is not given here.

Our source for the mutagenic call values is PubChem BioAssay AID1259407 (Chemical Carcinogenesis Research Information System (CCRIS), 2018).

For the molecule `C[N+](C)(C)Cc1ccccc1`, the mutagenic call is “inactive; negative” (Test System: AMES SALMONELLA TYPHIMURIUM, Strain/Indicator: TA97, Metabolic Activation: HAMSTER, LIVER, S-9, AROCLOR 1254 (10 OR 30%), Method: PREINCUBATION); “inactive; negative” (Test System: AMES SALMONELLA TYPHIMURIUM, Strain/Indicator: TA97, Metabolic Activation: NONE, Method: PREINCUBATION); “inactive; negative” (Test System: AMES SALMONELLA TYPHIMURIUM, Strain/Indicator: TA97, Metabolic Activation: RAT, LIVER, S-9, AROCLOR 1254 (10 OR 30%), Method: PREINCUBATION); “inactive; negative” (Test System: AMES SALMONELLA TYPHIMURIUM, Strain/Indicator: TA98, Metabolic Activation: HAMSTER, LIVER, S-9, AROCLOR 1254 (10 OR 30%), Method: PREINCUBATION); “inactive; negative” under setting [1]; “inactive; negative” (Test System: AMES SALMONELLA TYPHIMURIUM, Strain/Indicator: TA98, Metabolic Activation: RAT, LIVER, S-9, AROCLOR 1254 (10 OR 30%), Method: PREINCUBATION). The mutagenic call runs as follows: (Test System: AMES SALMONELLA TYPHIMURIUM, Strain/Indicator: TA100, Metabolic Activation: HAMSTER, LIVER, S-9, AROCLOR 1254 (10 OR 30%), Method: PREINCUBATION) “inactive; negative”; under setting [2], “inactive; negative”; (Test System: AMES SALMONELLA TYPHIMURIUM, Strain/Indicator: TA100, Metabolic Activation: RAT, LIVER, S-9, AROCLOR 1254 (10 OR 30%), Method: PREINCUBATION) “inactive; negative”; (Test System: AMES SALMONELLA TYPHIMURIUM, Strain/Indicator: TA1535, Metabolic Activation: HAMSTER, LIVER, S-9, AROCLOR 1254 (10 OR 30%), Method: PREINCUBATION) “inactive; negative”; under setting [3], “inactive; negative”; (Test System: AMES SALMONELLA TYPHIMURIUM, Strain/Indicator: TA1535, Metabolic Activation: RAT, LIVER, S-9, AROCLOR 1254 (10 OR 30%), Method: PREINCUBATION) “inactive; negative”.

On to `O=C(OCc1ccccc1[N+](=O)[O-])c1ccccc1`, for which the mutagenic call by setting is: under setting [1], “inactive; negative”; under setting [2], “inactive; negative”; (Test System: AMES SALMONELLA TYPHIMURIUM, Strain/Indicator: TA100, Metabolic Activation: RAT, LIVER, S-9, AROCLOR 1254, Method: PREINCUBATION) “inactive; negative”.

Consider `CCCCOC(=O)c1ccccc1C(=O)OCc1ccccc1`, for which the mutagenic call by setting is: (End Point: IN VITRO CHROMOSOMAL ABERRATIONS, Test System: CHINESE HAMSTER OVARY CELLS, Metabolic Activation: NONE) “inactive; negative”; (End Point: IN VITRO CHROMOSOMAL ABERRATIONS, Test System: CHINESE HAMSTER OVARY CELLS, Metabolic Activation: RAT, LIVER, S-9, AROCLOR 1254) “inactive; negative”; (Test System: AMES SALMONELLA TYPHIMURIUM, Strain/Indicator: TA98, Metabolic Activation: HAMSTER, LIVER, S-9, AROCLOR 1254 (10%), Method: PREINCUBATION) “inactive; negative”; under setting [1], “inactive; negative”; (Test System: AMES SALMONELLA TYPHIMURIUM, Strain/Indicator: TA98, Metabolic Activation: RAT, LIVER, S-9, AROCLOR 1254 (10%), Method: PREINCUBATION) “inactive; negative”; (Test System: AMES SALMONELLA TYPHIMURIUM, Strain/Indicator: TA100, Metabolic Activation: HAMSTER, LIVER, S-9, AROCLOR 1254 (10%), Method: PREINCUBATION) “inactive; negative”. For the same molecule, the mutagenic call runs as follows: under setting [2], “inactive; negative”; (Test System: AMES SALMONELLA TYPHIMURIUM, Strain/Indicator: TA100, Metabolic Activation: RAT, LIVER, S-9, AROCLOR 1254 (10%), Method: PREINCUBATION) “inactive; negative”; (Test System: AMES SALMONELLA TYPHIMURIUM, Strain/Indicator: TA1535, Metabolic Activation: HAMSTER, LIVER, S-9, AROCLOR 1254 (10%), Method: PREINCUBATION) “inactive; negative”; under setting [3], “inactive; negative”; (Test System: AMES SALMONELLA TYPHIMURIUM, Strain/Indicator: TA1535, Metabolic Activation: RAT, LIVER, S-9, AROCLOR 1254 (10%), Method: PREINCUBATION) “inactive; negative”; (Test System: AMES SALMONELLA TYPHIMURIUM, Strain/Indicator: TA1537, Metabolic Activation: HAMSTER, LIVER, S-9, AROCLOR 1254 (10%), Method: PREINCUBATION) “inactive; negative”. Further, the mutagenic call reads like this: (Test System: AMES SALMONELLA TYPHIMURIUM, Strain/Indicator: TA1537, Metabolic Activation: NONE, Method: PREINCUBATION) “inactive; negative”; (Test System: AMES SALMONELLA TYPHIMURIUM, Strain/Indicator: TA1537, Metabolic Activation: RAT, LIVER, S-9, AROCLOR 1254 (10%), Method: PREINCUBATION) “inactive; negative”; (Test System: MOUSE LYMPHOMA, Strain/Indicator: L5178Y (TK+/TK-), Metabolic Activation: NONE, Method: SUSPENSION/PLATE) “inactive; negative”; (Test System: MOUSE LYMPHOMA, Strain/Indicator: L5178Y (TK+/TK-), Metabolic Activation: RAT LIVER S-9, Method: SUSPENSION/PLATE) “active; positive”; (Test System: MOUSE LYMPHOMA, Strain/Indicator: L5178Y (TK+/TK-), Metabolic Activation: RAT, LIVER, S-9, AROCLOR 1254, Method: SUSPENSION/PLATE) “inactive; negative”.

Take `O[C@H]1C=Cc2c(ccc3ncccc23)[C@@H]1O`: the mutagenic call under setting [4] was “inactive; negative”.

For `OC1C=Cc2c(ccc3ccccc23)C1O` (stereo not given), the mutagenic call under setting [4] is “active; positive”.

In the case of `NC(=O)Oc1ccccc1`, for the setting “Test System: E. COLI, Strain/Indicator: WP2 UVRA, Metabolic Activation: NONE, Method: FLUCTUATION TEST”, the mutagenic call is “inactive; negative”.
